Paper PMC11727334, “A self-immolative Kdn-glycoside substrate enables high-throughput screening for inhibitors of Kdnases” (Glycobiology, 2024)
Entries after “also recorded” stand apart in the source; their conditions may differ. Like-named read-outs stand apart in the source and are kept apart here.

Tests used:
AtK = assay: Differential scanning fluorimetry (DSF) thermal shift assay, AtK; format: binding, Aspergillus terreus; conditions: for Thermal shift (ΔTm) relative to DMSO (2.5%) control: Table S4; for Thermal shift (ΔTm) relative to DMSO (2.5%) control / protein melting temperature (DSF, Table S3): inhibitor 500 µM; for protein melting temperature (DSF, Table S3): 100 mM pH 4.0 NaOAc, 5–10 µM enzyme
Text: (§1) We next used a separate biophysical technique, differential scanning fluorimetry (DSF), to confirm that these compound bind to the various Kdnases. Specifically, we measured protein melting temperatures in the presence of Kdn2en (2) and candidate ligands 13 and 17 (Fig. 3D). […] We repeated this DSF assay on AtK and TrK and we observed similar trends in thermal shifts (Fig. S14 and Tables S2,S3 and S4, Supporting Information). […] Accordingly, further follow up on this compound would need to be pursued with an awareness of this possibility.
(§2) Table S3. Differential scanning fluorometry-based (DSF) assay for inhibitors 2, 13, and 17 binding to Af, At, Tr and MvNA. Protein thermal shifts(ΔTm) using DMSO (2.5%), and inhibitors 2, 13, and 17 at 500 µM against the Kdnase of Af, At, Tr and MvNA. Assay done using 5–10 µM enzyme and 100 mM pH 4.0 NaOAc (pH 5.5 MvNA). A temperature range of 25°C to 95°C was used with a gradient of 0.05°C/sec. […]
(§3) Table S4. Thermal shifts (ΔTm) for stabilization of AfK, AtK, TrK and MvNA on inhibitor binding relative to the DMSO (2.5%) control. […]

AfK [1] = target: T1, AfK (Aspergillus fumigatus, UniProt Q4WQS0); assay: Differential scanning fluorimetry (DSF) thermal shift assay, AfK; format: binding; conditions: for effect on thermal stability of the folded enzyme (DSF, in words): AfK; for protein melting temperature (DSF, Table S3): inhibitor 500 µM, 100 mM pH 4.0 NaOAc, 5–10 µM enzyme; for ΔTm at 500 µM: read-out: Thermal shift (ΔTm) relative to DMSO (2.5%) control
T1 construct: AfK was expressed and purified as described by Telford et al; made in house
Text: as §1, §2, §3

MvNA = MvNA (Micromonospora viridifaciens, UniProt Q02834); assay: Differential scanning fluorimetry (DSF) thermal shift assay, MvNA; format: binding; conditions: inhibitor 500 µM; for ΔTm at 500 µM: Table S4, read-out: Thermal shift (ΔTm) relative to DMSO (2.5%) control; for protein melting temperature (DSF, Table S3): pH 5.5, 5–10 µM enzyme
Experimental: as §2, §3

neuraminidase MvNA = neuraminidase MvNA (Micromonospora viridifaciens, UniProt Q02834); assay: Inhibition assay of the sialidase MvNA using Kdn4MU as substrate; format: biochemical; conditions: for Hill coefficient: Table 1, 37 °C, pH 5.5
Text: (§4) We purchase fresh commercial material for compounds 13 and 14 and performed inhibition assays using recombinant AfK (Methods, Fig. S8, Supporting Information). We determined IC50 values in quadruplicate using 4MU-Kdn as the substrate ([Yeung et al. 2013]). […] We submitted both compounds to a pan-assay interference compounds (PAINS) filter, a compilation of chemical substructures known to show promiscuous biological activities ([Baell and Nissink 2018]). […] We performed standard inhibition assays as described earlier using inhibitor 13 and these recombinant enzymes. […] We also tested inhibitor 13 with the sialidase MvNA, the closest structural homologue to AfK, that is known to cleave a multitude of substrates including Kdn glycosides ([Telford et al. 2011]).
Each 200 μM reaction mixture was incubated at rt for 2 min prior to the addition of purified sialidase. […] The kinetic parameters were determined from initial rate measurements using a substrate concentration of Km/4. The progress of the reaction was continuously monitored for 15 min using a fluorescence spectrophotometer (BioTek Neo 2) and excitation and emission wavelengths of 360 and 450 nm, respectively.

[2] = target: Aspergillus terreus Kdnase (AtK) (Aspergillus terreus, UniProt Q0CMX0); assay: Inhibition assay of recombinant AtK using Kdn4MU as substrate; format: biochemical; conditions: for Hill coefficient: pH 4.0
Text: as §4
(§5) Each 200 μM reaction mixture was incubated at rt for 2 min prior to the addition of purified sialidase. Inhibitor was added to the reaction mixture and allowed to incubate at rt between 0–60 min in 100 mM sodium acetate buffer pH 4.0 and 0.01% BSA prior to the addition of substrate. The kinetic parameters were determined from initial rate measurements using a substrate concentration of Km/4. The progress of the reaction was continuously monitored for 15 min using a fluorescence spectrophotometer (BioTek Neo 2) and excitation and emission wavelengths of 360 and 450 nm, respectively.

TrK = assay: Differential scanning fluorimetry (DSF) thermal shift assay, TrK; format: binding, Trichophyton rubrum; conditions: for Thermal shift (ΔTm) relative to DMSO (2.5%) control: Table S4; for Thermal shift (ΔTm) relative to DMSO (2.5%) control / protein melting temperature (DSF, Table S3): inhibitor 500 µM; for effect on thermal stability of the folded enzyme (DSF, in words): TrK; for protein melting temperature (DSF, Table S3): 100 mM pH 4.0 NaOAc, 5–10 µM enzyme
Text: as §1, §2, §3

[3] = target: Trichophyton rubrum Kdnase (TrK) (Trichophyton rubrum, UniProt A0A178EUH2); assay: Inhibition assay of recombinant TrK using Kdn4MU as substrate; format: biochemical; conditions: for Hill coefficient: pH 4.0
Text: as §4, §5

[4] = target: T2, Kdnase produced by A. fumigatus (AfK) (Aspergillus fumigatus, UniProt Q4WQS0); assay: Inhibition assay of recombinant AfK using 4MU-Kdn as substrate; format: biochemical; conditions: for mode of inhibition (Lineweaver-Burk plots) / fold lower IC50 value than that reported for Kdn2en 2: AfK; for fold lower IC50 value than that reported for Kdn2en 2: Kdn2en value from Yeung et al. 2013; for IC50: Kdn4MU substrate, read-out: IC50; for Hill coefficient: pH 4.0; for Ki: calculated Ki = IC50/(([S]/Km) + 1), read-out: Ki
T2 construct: AfK was expressed and purified as described by Telford et al; made in house
Text: as §4, §5

AfK [5] = target: T1, AfK; assay: HTS assay of AfK activity using Kdn glycoside 4 (384-well, stop solution); format: biochemical; conditions: TargetMol library pilot screen
Experimental: We next miniaturized our assay for use in a 384-well microplate format by optimizing the quantity of detergent and checking for fluorescent signal stability (Figs 2A,S6 and S7 Supporting Information). In each well, we added a solution of buffer containing AfK (50 nM) and then added a library compound using a pin tool. We included both detergent (0.2% (v/v) Tween-20) and BSA (0.01% BSA) to reduce false positives arising from aggregation prone compounds ([Feng et al. 2007]). We then equilibrated the mixture prior to the addition of substrate 4, and the resultant solution was incubated for 1 h after which stop solution was added. To ensure cyclization was complete, the mixture was allowed to react for 1 h prior to measuring the fluorescence. Candidate hits identified in this primary screen were cherry picked and delivered into a gold plate that was used to confirm hits.
To each well in a 384-well microplate, enzyme (20 μL of a 50 nM stock solution) in reaction buffer (100 mM NaOAc, 0.2% Tween-20, 0.01% BSA, pH 4) was added to a library compound (200 nL of 20 μM TargetMol, 10 μM Chembridge), and this mixture was incubated at rt for 1 h. Then, substrate 4 (20 μL of a 50 μM stock) was added and the resultant mixture was incubated at rt for an additional 1 hr. Following addition of stop solution (40 μL of 1 M aqueous K2CO3, pH ≈ 12) to the mixture the plate was incubated for 1 h at rt. Next, the fluorescence for each well was measured (BioTek Neo 2) using an excitation and an emission wavelength of 360 and 450 nm, respectively. The collected data was analyzed using Prism 7.0. We used the known mechanism-based inactivator 2,3-diF-Kdn (3) as the positive control ([Watts et al. 2006]; [Khazaei et al. 2015]). That is, using 2,3-diFKdn at a concentration of 30 μM, following a 10 min incubation, gives a background signal that equates to >90% inhibition.

[6] = target: T2, Kdnase produced by A. fumigatus (AfK); set-up: method as in Telford et al. (3); conditions: Table S2; ref Telford et al. (3); cited from earlier work
A. fumigatus = system: A. fumigatus; set-up: method as in Nesbitt et al. 2018; conditions: ref Nesbitt et al. 2018, cited from earlier work
AfK [7] = target: T1, AfK; conditions: Table S1; ref Telford et al., J Biol Chem, 2011, 10783; cited from earlier work
[8] = Table 1, 37 °C, Kdn4MU substrate, NaOAc 100 mM pH 4.0, 0.01% BSA, read-out: IC50
[9] = Table 1, calculated Ki = IC50/(([S]/Km) + 1)
[10] = Table 1, 37 °C, NaOAc 100 mM pH 4.0, 0.01% BSA
[11] = Table S2, values from this work

T2 sequence (Q4WQS0 21-406): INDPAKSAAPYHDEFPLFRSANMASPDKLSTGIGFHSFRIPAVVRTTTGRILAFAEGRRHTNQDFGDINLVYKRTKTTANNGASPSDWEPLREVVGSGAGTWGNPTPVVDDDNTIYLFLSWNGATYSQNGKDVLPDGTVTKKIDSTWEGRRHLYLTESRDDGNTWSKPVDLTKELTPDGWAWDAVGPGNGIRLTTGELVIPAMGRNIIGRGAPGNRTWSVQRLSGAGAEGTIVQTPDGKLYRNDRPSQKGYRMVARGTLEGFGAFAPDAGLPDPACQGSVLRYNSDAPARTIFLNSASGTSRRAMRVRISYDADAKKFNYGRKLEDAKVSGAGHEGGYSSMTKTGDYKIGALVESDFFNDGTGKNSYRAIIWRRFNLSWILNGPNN
T1 sequence (Q4WQS0 21-406): as above
Sequence of Trichophyton rubrum Kdnase (TrK) (A0A178EUH2 entry or part of it): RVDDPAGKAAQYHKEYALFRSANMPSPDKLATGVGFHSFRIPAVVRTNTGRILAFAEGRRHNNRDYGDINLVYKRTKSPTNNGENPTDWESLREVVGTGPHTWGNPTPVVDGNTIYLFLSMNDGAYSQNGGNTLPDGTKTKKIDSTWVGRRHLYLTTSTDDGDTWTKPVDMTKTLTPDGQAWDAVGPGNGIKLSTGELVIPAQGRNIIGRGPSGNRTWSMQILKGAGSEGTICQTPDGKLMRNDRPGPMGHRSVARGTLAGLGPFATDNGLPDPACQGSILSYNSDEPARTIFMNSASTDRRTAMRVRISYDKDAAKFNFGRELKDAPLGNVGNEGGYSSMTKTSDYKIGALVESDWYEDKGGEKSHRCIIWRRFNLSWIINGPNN
Sequence of Aspergillus terreus Kdnase (AtK) (Q0CMX0 entry or part of it): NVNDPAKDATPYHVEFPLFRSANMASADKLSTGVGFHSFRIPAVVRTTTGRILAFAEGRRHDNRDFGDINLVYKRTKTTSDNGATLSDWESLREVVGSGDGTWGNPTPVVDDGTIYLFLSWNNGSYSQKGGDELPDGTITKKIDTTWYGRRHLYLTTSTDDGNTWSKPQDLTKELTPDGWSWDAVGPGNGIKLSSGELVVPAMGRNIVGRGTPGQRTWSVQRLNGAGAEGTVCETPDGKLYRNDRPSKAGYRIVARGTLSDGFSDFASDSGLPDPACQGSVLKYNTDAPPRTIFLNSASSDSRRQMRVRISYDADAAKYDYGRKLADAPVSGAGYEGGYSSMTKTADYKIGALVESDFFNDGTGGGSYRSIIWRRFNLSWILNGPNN
Sequence of MvNA (Q02834 38-647): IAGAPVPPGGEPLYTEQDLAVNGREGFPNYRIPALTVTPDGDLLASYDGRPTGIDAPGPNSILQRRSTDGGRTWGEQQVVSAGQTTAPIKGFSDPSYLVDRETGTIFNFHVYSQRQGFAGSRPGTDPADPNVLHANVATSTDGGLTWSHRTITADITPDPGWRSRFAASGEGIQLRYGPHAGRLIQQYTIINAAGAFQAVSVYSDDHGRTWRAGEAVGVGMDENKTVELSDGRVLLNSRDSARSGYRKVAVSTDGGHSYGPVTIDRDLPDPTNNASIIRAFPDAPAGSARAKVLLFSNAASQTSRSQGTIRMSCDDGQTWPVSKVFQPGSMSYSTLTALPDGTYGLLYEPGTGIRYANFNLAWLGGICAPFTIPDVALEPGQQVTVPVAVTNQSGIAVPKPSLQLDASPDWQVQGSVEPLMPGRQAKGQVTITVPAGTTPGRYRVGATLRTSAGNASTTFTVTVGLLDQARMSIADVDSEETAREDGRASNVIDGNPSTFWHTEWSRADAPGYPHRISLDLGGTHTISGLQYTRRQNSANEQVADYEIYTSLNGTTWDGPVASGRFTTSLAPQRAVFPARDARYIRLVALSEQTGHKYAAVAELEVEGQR
Sequence of neuraminidase MvNA (Q02834 38-647): as above

Row | Compound | Thermal shift (ΔTm) relative to DMSO (2.5%) control (AtK) | protein melting temperature (DSF, Table S3) (AtK) | effect on thermal stability of the folded enzyme (DSF, in words) (AfK [1]) | protein melting temperature (DSF, Table S3) (AfK [1]) | ΔTm at 500 µM (AfK [1]) | ΔTm at 500 µM (MvNA) | protein melting temperature (DSF, Table S3) (MvNA) | IC50 (neuraminidase MvNA) | Hill coefficient (neuraminidase MvNA) | Hill coefficient ([2]; Table 1, 37 °C) | Thermal shift (ΔTm) relative to DMSO (2.5%) control (TrK) | effect on thermal stability of the folded enzyme (DSF, in words) (TrK) | protein melting temperature (DSF, Table S3) (TrK) | Hill coefficient ([3]; Table 1, 37 °C) | mode of inhibition (Lineweaver-Burk plots) [4] | fold lower IC50 value than that reported for Kdn2en 2 [4] | IC50 [4, 10] | Hill coefficient ([4]; Table 1, 37 °C) | Ki ([4]; Table 1) | Hill [4, 11] | also measured
1 | O=C1NC[C@@]2(C(=O)O)CN(Cc3ccc(C4CCCCC4)s3)C[C@@H]12 [compound 17] | +3.5 ± 0.1 °C | 55.4 ± 0.1 °C | stabilizes all three Kdnases; also recorded: positive unfolding temperature shifts | 54.6 ± 0.1 °C | 3.1 °C | 5.2 °C | 59.1 ± 0.1 °C | 6.6 ± 0.6 µM | −0.89 | −0.88 | +16.2 ± 0.1 °C | stabilizes all three Kdnases | 50.9 ± 0.1 °C | −1.11 | competitive inhibitor | 5 fold | 115 ± 2 µM | −0.81 | 74.7 µM | –0.81 | effect on thermal stability of the folded enzyme (DSF, in words) (AtK; AtK): stabilizes all three Kdnases; IC50 [2, 8]: 50 ± 1.2 µM; Ki [2, 9]: 38.5 µM; IC50 [3, 8]: 93.3 ± 0.8 µM; Ki [3, 9]: 73.3 µM; IC50 ([4]; Table S2, sodium acetate 100 mM pH 4.0, 0.01% BSA, 37 C, values from this work): 115 ± 2 µM; inhibition of AfK in standard inhibition assay ([4]; purchased compounds, 4MU-Kdn 1 as substrate): inhibited AfK
2 | O=C(/C=C/c1ccc(O)c2c1[C@H](C(=O)O)[C@@H](c1ccc(O)c(O)c1)O2)O[C@H](Cc1ccc(O)c(O)c1)C(=O)O [compound 13, lithospermic acid] | –0.8 ± 0.1 °C | 51.1 ± 0.1 °C | stabilizes neither AfK; also recorded: no effect on the stability of AfK | 51.4 ± 0.1 °C | -0.1 °C | 1 °C | 54.9 ± 0.4 °C | 347 ± 2 µM | −0.90 | −1.36 | +13.7 ± 0.1 °C | does stabilize TrK | 48.4 ± 0.1 °C | −0.80 | competitive inhibitors | 24 fold | 22.8 ± 1 µM | −1.32 | 18.7 µM | –1.32 | IC50 [2]: 14.4 ± 0.07 µM; mode of inhibition ([2]; AtK): competitively inhibited; IC50 [3]: 11.8 ± 0.1 µM; mode of inhibition ([3]; TrK): competitively inhibited; inhibitory activity verified in repeat assay of HTS hits (AfK [5]): inhibit AfK; time-dependent inhibition ([4]; time points 0, 10 and 60 mins, 50 µM Kdn4MU 1 substrate): no time dependent changes in calculated IC50 values
3 | O=C(O)C1=C[C@H](O)[C@@H](O)[C@H]([C@H](O)[C@H](O)CO)O1 [compound 2, Kdn2en, reference compound] | +3.4 ± 0.1 °C | 55.3 ± 0.1 °C | positive unfolding temperature shifts | 53.2 ± 0.1 °C | 1.7 °C | 0.5 °C | 54.4 ± 0.1 °C | – | – | – | +15.0 ± 0.2 °C | – | 49.7 ± 0.2 °C | – | – | – | – | – | – | – | IC50 [6]: 556 µM; Ki [6]: 102 µM
4 | C[C@@H]1[C@H](O)[C@@H](C)/C=C/C=C/C=C/C=C/C=C/C=C/C=C/[C@H](O[C@@H]2O[C@H](C)[C@@H](O)[C@H](N)[C@@H]2O)C[C@@H]2O[C@](O)(C[C@@H](O)C[C@@H](O)[C@H](O)CC[C@@H](O)C[C@@H](O)CC(=O)O[C@H]1C)C[C@H](O)[C@H]2C(=O)O [Amphotericin B] | – | – | – | – | – | – | – | – | – | – | – | – | – | – | – | – | – | – | – | – | survival outcome (A. fumigatus; immunocompromised mice infected with AfK KO spores): improved survival rate; survival outcome (A. fumigatus; immunocompromised mice infected with wild-type (WT) A. fumigatus spores): complete mortality
5 | Cc1cc(=O)oc2cc(O[C@]3(C(=O)O)C[C@H](O)[C@@H](O)[C@H]([C@H](O)[C@H](O)CO)O3)ccc12 [compound 1, 4-methylumbelliferyl 3-deoxy-D-glycero-D-galacto-non-2-ulopyranosidonic acid] | – | – | – | – | – | – | – | – | – | – | – | – | – | – | – | – | – | – | – | – | Km (AfK [7]): 230 ± 20 µM; kcat (AfK [7]): 41 ± 4 s–1
